Measurements as given in patent US20150119395A1, “NOVEL TRIAZOLE COMPOUNDS THAT MODULATE HSP90 ACTIVITY” (SYNTA PHARMACEUTICALS CORP., priority 2012, published 2015).

Test system: Her2
Assay: Her2 degradation in BT-474 cells, in-cell western (ICW), Method 2
Assay type: cell-based, human
Conditions: for IC50: BT-474 cells, 24 hours, Her2 signal normalized to DRAQ5, read-out: Her2 IC50 range of compounds of the invention for inhibition of Hsp90; for EC50: Table 3, read-out: EC50 range for Her2 degradation
Procedure: Human BT474 (HTB-20), SK-BR-3 (HTB-30) and MCF-7 breast carcinoma cells (HTB-22) from American Type Culture Collection, VA, USA were grown in Dulbecco's modified Eagle's medium with 4 mM L-glutamine and antibiotics (100 IU/ml penicillin and 100 μg/ml streptomycine; GibcoBRL). To obtain exponential cell growth, cells were trypsinized, counted and seeded at a cell density of 0.5×10^6 cells/ml regularly, every 3 days. All experiments were performed on day 1 after cell passage.
BT-474 cells were plated in the interior 60 wells of a 96 well black clear bottom plate (20,000 cells/well) in DMEM medium, with DMEM media in the surrounding 36 wells, and incubated at 37° C. with 5% CO2 overnight. On the second day, concentration response curve source plates were produced (10 point, 3-fold dilution of compounds in DMSO) followed by a 1:30 dilution in an intermediate dilution plate containing DMEM. Compound was transferred from the intermediate plate to the cell plate at a dilution of 1:10. The cells were incubated at 37° C. with 5% CO2 for 24 hours.
Cells were fixed in 4% phosphate buffered paraformaldehyde for 30 minutes at room temperature and then permeabilized by washing five times with 0.1% Triton X-100 in PBS for 5 minutes at room temperature on a shaker. Cells were blocked with Odyssey Blocking Buffer (LI-COR, #927-40000) on a shaker at room temperature for 1.5 hours followed by incubation with Her2 antibody (CST, #2165) diluted 1:400 in blocking buffer overnight on a shaker at 4° C. Cells were washed five times with 0.1% Tween-20 in PBS for 5 minutes at room temperature on a shaker and incubated with fluorescently labeled secondary antibody (LI-COR, #926-32211) diluted 1:1000 in blocking buffer, and DRAQ5 nuclear stain (Biostatus Limited, #DRAQ5) diluted 1:10,000, at room temperature on a shaker for 1 hour. Cells were washed 5 times with 0.1% Tween-20 in PBS for 5 minutes at room temperature on a shaker and imaged on a LI-COR Odyssey imaging station. The raw data was normalized to DRAQ5 and the Her2 EC50 were calculated using XLfit.

## CC(C)c1cc(-c2nnc(-c3cc(C(C)C)c(O)cc3O)n2-c2ccc(N3CCN(C)CC3)cc2)c(O)cc1O [Compound 1, 6,6′-(4-(4-(4-methylpiperazin-1-yl)phenyl)-4H-1,2,4-triazole-3,5-diyl)bis(4-isopropylbenzene-1,3-diol)]
  IC50: 3500 nM

## CC(C)c1cc(-c2nnc(-c3ccncc3)n2-c2ccc(N3CCN(C)CC3)cc2)c(O)cc1O [Compound 2, 4-isopropyl-6-(4-(4-(4-methylpiperazin-1-yl)phenyl)-5-(pyridin-4-yl)-4H-1,2,4-triazol-3-yl)benzene-1,3-diol]
  IC50: 2280 nM

## CC(C)c1cc(-c2nnc(-c3ccccc3O)n2-c2ccc(N3CCN(C)CC3)cc2)c(O)cc1O [Compound 3, 4-(5-(2-hydroxyphenyl)-4-(4-(4-methylpiperazin-1-yl)phenyl)-4H-1,2,4-triazol-3-yl)-6-isopropylbenzene-1,3-diol]
  IC50: 5160 nM

## CC(C)c1cc(-c2nnc(-c3cccc(O)c3)n2-c2ccc(N3CCN(C)CC3)cc2)c(O)cc1O [Compound 4, 4-(5-(3-hydroxyphenyl)-4-(4-(4-methylpiperazin-1-yl)phenyl)-4H-1,2,4-triazol-3-yl)-6-isopropylbenzene-1,3-diol]
  IC50: 543 nM

## CC(C)c1cc(-c2nnc(-c3ccccn3)n2-c2ccc(N3CCN(C)CC3)cc2)c(O)cc1O [Compound 5, 4-isopropyl-6-(4-(4-(4-methylpiperazin-1-yl)phenyl)-5-(pyridin-2-yl)-4H-1,2,4-triazol-3-yl)benzene-1,3-diol]
  IC50: 543 nM

## CC(C)c1cc(-c2nnc(-c3cnccn3)n2-c2ccc(N3CCN(C)CC3)cc2)c(O)cc1O [Compound 6, 4-isopropyl-6-(4-(4-(4-methylpiperazin-1-yl)phenyl)-5-(pyrazin-2-yl)-4H-1,2,4-triazol-3-yl)benzene-1,3-diol]
  IC50: 3400 nM

## CC(C)c1cc(-c2nnc(-c3cccc(O)c3)n2-c2ccc(CN3CCN(C)CC3)cc2)c(O)cc1O [Compound 7, 4-(5-(3-hydroxyphenyl)-4-(4-((4-methylpiperazin-1-yl)methyl)phenyl)-4H-1,2,4-triazol-3-yl)-6-isopropylbenzene-1,3-diol]
  IC50: 123 nM

## CC(C)c1cc(-c2nnc(-c3cccc(O)c3)n2-c2ccc(N3CCOCC3)cc2)c(O)cc1O [Compound 8, 4-(5-(3-hydroxyphenyl)-4-(4-morpholinophenyl)-4H-1,2,4-triazol-3-yl)-6-isopropylbenzene-1,3-diol]
  IC50: 143 nM

## CC(C)c1cc(-c2nnc(-c3cccc(O)c3)n2-c2ccccc2)c(O)cc1O [Compound 9, 4-(5-(3-hydroxyphenyl)-4-phenyl-4H-1,2,4-triazol-3-yl)-6-isopropylbenzene-1,3-diol]
  EC50: < 200 nM

## CC(C)c1cc(-c2nnc(-c3cccc(O)c3)n2-c2ccc(CN3CCOCC3)cc2)c(O)cc1O [Compound 10, 4-(5-(3-hydroxyphenyl)-4-(4-(morpholinomethyl)phenyl)-4H-1,2,4-triazol-3-yl)-6-isopropylbenzene-1,3-diol]
  EC50: 60 nM

## CC(C)c1cc(-c2nnc(-c3cccc(O)c3)n2-c2cccnc2)c(O)cc1O [Compound 11, 4-(5-(3-hydroxyphenyl)-4-(pyridin-3-yl)-4H-1,2,4-triazol-3-yl)-6-isopropylbenzene-1,3-diol]
  EC50: 300 nM

## CC(C)c1cc(-c2nnc(-c3cccnc3)n2-c2cccnc2)c(O)cc1O [Compound 12, 4-(4,5-di(pyridin-3-yl)-4H-1,2,4-triazol-3-yl)-6-isopropylbenzene-1,3-diol]
  EC50: 1000 nM

## CC(C)c1cc(-c2nnc(-c3cccnc3)n2-c2ccc(CN3CCOCC3)cc2)c(O)cc1O [Compound 13, 4-isopropyl-6-(4-(4-(morpholinomethyl)phenyl)-5-(pyridin-3-yl)-4H-1,2,4-triazol-3-yl)benzene-1,3-diol]
  EC50: 100 nM

## CC(C)c1cc(-c2nnc(-c3cc4ccccc4[nH]3)n2-c2ccccc2)c(O)cc1O [Compound 14, 4-(5-(1H-indol-2-yl)-4-phenyl-4H-1,2,4-triazol-3-yl)-6-isopropylbenzene-1,3-diol]
  EC50: 25 nM

## CC(C)c1cc(-c2nnc(-c3cccnc3)n2-c2ccccc2)c(O)cc1O [Compound 15, 4-isopropyl-6-(4-phenyl-5-(pyridin-3-yl)-4H-1,2,4-triazol-3-yl)benzene-1,3-diol]
  EC50: < 200 nM

## CC(C)c1cc(-c2nnc(-c3cccnc3)n2-c2ccc(CN3CCN(C)CC3)cc2)c(O)cc1O [Compound 16, 4-isopropyl-6-(4-(4-((4-methylpiperazin-1-yl)methyl)phenyl)-5-(pyridin-3-yl)-4H-1,2,4-triazol-3-yl)benzene-1,3-diol]
  EC50: 18 nM

## CC(C)c1cc(-c2nnc(-c3cccnc3)n2-c2ccc(N3CCOCC3)cc2)c(O)cc1O [Compound 17, 4-isopropyl-6-(4-(4-morpholinophenyl)-5-(pyridin-3-yl)-4H-1,2,4-triazol-3-yl)benzene-1,3-diol]
  EC50: 38 nM

## COc1cc(O)c(-c2nnc(-c3cccnc3)n2-c2ccc(CN3CCOCC3)cc2Cl)cc1C(C)C [Compound 18, 2-(4-(2-chloro-4-(morpholinomethyl)phenyl)-5-(pyridin-3-yl)-4H-1,2,4-triazol-3-yl)-4-isopropyl-5-methoxyphenol]
  EC50: 5000 nM

## CCN1CCN(Cc2ccc(-n3c(-c4cccnc4)nnc3-c3cc(C(C)C)c(O)cc3O)c(Cl)c2)CC1 [Compound 19, 4-(4-(2-chloro-4-((4-ethylpiperazin-1-yl)methyl)phenyl)-5-(pyridin-3-yl)-4H-1,2,4-triazol-3-yl)-6-isopropylbenzene-1,3-diol]
  EC50: 52 nM

## COc1cc(O)c(-c2nnc(-c3cccnc3)n2-c2ccc(CN3CCN(C)CC3)cc2)cc1C(C)C [Compound 20, 4-isopropyl-5-methoxy-2-(4-(4-((4-methylpiperazin-1-yl)methyl)phenyl)-5-(pyridin-3-yl)-4H-1,2,4-triazol-3-yl)phenol]
  EC50: 2090 nM

## CC(C)c1cc(-c2ccc(-c3cccnc3)n2-c2ccc(N3CCOCC3)cc2)c(O)cc1O [Compound 21, 4-isopropyl-6-(1-(4-morpholinophenyl)-5-(pyridin-3-yl)-1H-pyrrol-2-yl)benzene-1,3-diol]
  EC50: 40 nM

## COc1ccc(-c2[nH]nc(-c3cc(C(C)C)c(O)cc3O)c2-c2ccc(OC)cc2)cc1 [Compound 22, 4-(4,5-bis(4-methoxyphenyl)-1H-pyrazol-3-yl)-6-isopropylbenzene-1,3-diol]
  EC50: > 200 nM

## COc1ccc(-c2cnc(-c3cc(C(C)C)c(O)cc3O)n2-c2ccc(N3CCOCC3)nc2)cc1 [Compound 23, 4-isopropyl-6-(5-(4-methoxyphenyl)-1-(6-morpholinopyridin-3-yl)-1H-imidazol-2-yl)benzene-1,3-diol]
  EC50: < 200 nM

## COc1ccc(-c2cnc(-c3cc(C(C)C)c(O)cc3O)n2-c2ccc(CN3CCN(C)CC3)cc2)cc1 [Compound 24, 4-isopropyl-6-(5-(4-methoxyphenyl)-1-(4-((4-methylpiperazin-1-yl)methyl)phenyl)-1H-imidazol-2-yl)benzene-1,3-diol]
  EC50: < 200 nM
